Experimental data from patent US20250382261A1 (The Broad Institute, Inc., priority 2021, published 2025).

Assays:
[1] = system: K. pneumoniae (ATCC 43816); assay: Checkerboard potentiation assay with novobiocin; format: cell-based
Procedure: (§1) Bacterial strains and culture conditions. The following bacterial strains were used within this study; A. baumannii (ATCC 17978), K. pneumoniae (ATCC 43816), K. pneumoniae (ATCC 43816, expressing pGDP2:mcr-1), P. aeruginosa (PA01). Bacterial growth was in cation-adjusted Mueller-Hinton broth (MHB) at 37° C., and inoculum was prepared according to CLSI protocol (CLSI 2015).
(§2) Potentiation assays. Checkerboard analyses were conducted with each drug serially diluted at eight concentrations to create an 8×8 matrix. At least two biological replicates were done for each combination, and the means were used for FIC calculation. The FIC for each drug was calculated by dividing the concentration of the drug in the presence of codrug in a combination for a well showing <10% growth by the MIC for that drug alone. The FIC index (FICI) is the sum of the two FICs, with an FIC index≤0.5 deemed synergistic.
(§3) To probe the spectrum of activity of the present analogs beyond A. baumannii, their interactions with novobiocin were assessed against the high-priority Gram-negative pathogens Klebsiella pneumoniae and P. aeruginosa (FIG. 5).

[2] = system: P. aeruginosa (PA01); assay: Checkerboard potentiation assay with novobiocin; format: cell-based
Procedure: as §1, §2, §3

[3] = system: LPS from E. coli EH100; assay: BODIPY-Cadaverine LPS displacement assay; format: binding; details: BODIPY-cadaverine displacement from E. coli EH100 LPS
Procedure: BODIPY-Cadaverine LPS displacement assay. The BODIPY-cadaverine LPS displacement assay was performed as previously described (Wood et al. 2004. Combinatorial Chemistry & High Throughput Screening, 7: 239-49; Klobucar et al. 2021. ACS Chemical Biology, 16: 929-42). A solution of BODIPY-cadaverine (2.25 μM) and LPS from E. coli EH100 (5.25 μM) in Tris-HCl buffer (50 mM, pH 7.4) was prepared. 0.5 μL of compound and 49.5 μL of the Tris-HCl buffer with BODIPY-cadaverine and LPS solution were added to a Corning nonbinding surface black 384-well polystyrene plate. Fluorescence intensity was measured immediately with an excitation wavelength of 580 nm and an emission wavelength of 620 nm. EC50 values were calculated using a three-parameter logistic curve in GraphPad Prism 9.

[4] = HEK293 cytotoxicity assay (Cell Titer Glo); format: cell-based; details: human, HEK293T Cytotoxicity (IC50, μg/mL)
Procedure: Cytotoxicity Assays. HEK293 (ATCC CRL 1573) cells were left to adhere for 18 h at 7.5×10^3 cells per well in DMEM containing 10% FBS and 2 mM L-glutamine. Compound was added directly into the well. After 48 h of treatment Promega Cell Titer Glo 2.0® was added, shaken for 10 min, and luminescence read (Biotek Neo). AC50 values were calculated using a four-parameter logistic curve in GraphPad Prism 9.
Focusing on only the analogs that retained synergistic activity with novobiocin (FICI≤0.5), half-maximal activity (AC50) values were calculated against HEK293 cells using a CellTiter-Glo® based assay to approximate cell viability. […] Specifically, the FICI value for both P35 and P36 was 0.094 against A. baumannii, while their AC50 values were 235 μg/mL and 200 μg/mL, respectively.

[5] = system: A. baumannii (ATCC 17978); assay: Checkerboard potentiation assay with novobiocin; format: cell-based; details: with novobiocin
Procedure: as §1, §2

Molecule	FICI KP [1]	FICI PA [2]	LPS Displacement (EC50, μg/mL) [3] [µg/mL]	IC50 at 48 h [4] [µg/mL]	FICI AB [5]
CC(CCCC(C)Oc1ccc(C(=N)N)cc1)Oc1ccc(C(=N)N)cc1 (stereo not shown) [Analog P15]	0.25	0.281			
N=C(N)c1ccc(OCCC[C@H]2CCCN(c3ccc(C(=N)N)cc3)C2)cc1 [Analog P24B]	0.187	0.75	149.5	57.9	
colistin [reference compound]			7.81		
N=C(N)c1ccc(OCCC2(CCOc3ccc(C(=N)N)cc3)CCCCCC2)cc1 [Analog P04]	0.25	0.531	15.97	37.1	0.14
C[C@H](CCCOc1ccc(C(=N)N)cc1)COc1ccc(C(=N)N)cc1 [Analog P22S]	0.25	0.375	59.08	53.7	
N=C(N)c1ccc(OCCC2(CCOc3ccc(C(=N)N)cc3)CCCCC2)cc1 [Analog P03]	0.078	0.625			0.094
N=C(N)c1ccc(OCCC(CCOc2ccc(C(=N)N)cc2)N2CCCC2)cc1 (stereo not shown) [Analog P38]		2	202	> 80	0.75
C[C@H](CCC[C@H](C)Oc1ccc(C(=N)N)cc1)Oc1ccc(C(=N)N)cc1 [Analog P15B]	0.187	0.187	132.5	239	
N=C(N)c1ccc(OCCNCCOc2ccc(C(=N)N)cc2)cc1 [Analog P31A]		2	497.8	> 640	0.5
N=C(N)c1ccc(OCCC[C@@H]2CCCN(c3ccc(C(=N)N)cc3)C2)cc1 [Analog P24A]	0.187	0.375	91.74	77.9	
C[C@H](CCC[C@@H](C)Oc1ccc(C(=N)N)cc1)Oc1ccc(C(=N)N)cc1 [Analog P15C]	0.25	0.375	148.8		
N=C(N)c1ccc(OCCC(N)CCOc2ccc(C(=N)N)cc2)cc1 (stereo not shown) [Analog P37]		2			0.75
C[C@@H](CCCOc1ccc(C(=N)N)cc1)COc1ccc(C(=N)N)cc1 [Analog P22R]	0.25	0.3125	26.02	94.2	
N=C(N)c1ccc(OCCCCCOc2ccc(C(=N)N)cn2)nc1 [Analog P20]	0.25	2		> 320	0.25
N=C(NC1CCCCC1)c1ccc(OCCCCCOc2ccc(C(=N)NC3CCCCC3)nc2)cn1 [Analog P18]	1	2	218.8	22.2	
C[C@@H](CCC[C@H](C)Oc1ccc(C(=N)N)cc1)Oc1ccc(C(=N)N)cc1 [Analog P15A]	0.25	0.5	118.2	106	
N/C(=N\O)c1ccc(OCCCCCOc2ccc(/C(N)=N/O)nc2)cn1 [Analog P19]	2	2		135	
N=C(N)c1ccc(OCCN(CCOc2ccc(C(=N)N)cc2)CCC(F)(F)F)cc1 [Analog P34]		0.375	134.3	> 80	0.25
N=C(N)c1ccc(OCCC2(CCOc3ccc(C(=N)N)cn3)CCCC2)nc1 [Analog P39]		0.3125	48.34	53.7	0.094
c1c[nH]c(-c2ccc(OCCCCCOc3ccc(-c4ncc[nH]4)cc3)cc2)n1 [Analog P11]	2	2		104	
